{"source": "patent EP3067369A1", "about": "“Methods and compositions for the treatment of anti-angiogenic resistant cancer” (Institut d'Investigació Biomèdica de Bellvitge (IDIBELL), priority 2015, dated 2016)", "key": {"[1]": {"tested_on": "REN 50 cells", "assay": "Effectiveness experiment: REN 50 renal tumors implanted in mice (tumor volume/weight, CD31 vascular density, necrosis)", "assay_type": "in vivo", "conditions": "for vascular density / tumor vasculature (anti-CD31 immunohistochemistry) / tumor weight and volume / percentage of necrosis: REN 50 tumors; for vascular density / tumor vasculature (anti-CD31 immunohistochemistry) / percentage of necrosis: compared to the control group; for vascular density / tumor vasculature (anti-CD31 immunohistochemistry): Figures 5 and 6; for tumor weight and volume: continuous administration; for percentage of necrosis: hematoxylin-eosin sections, Figure 7", "description": "An effectiveness experiment was performed according to the following scheme: tumors of about 2 mm^3 size were implanted in mice, and the tumors were allowed to develop for 20 days (to a size of about 750 mm^3). The time from tumor development to death was measured as the anti-angiogenic response.\n7 mice were implanted per treatment group. REN 50 cells were implanted. Treatment started when mice developed tumors with a volume tumor of about 750 mm^3, and lasted for three weeks. Table 2. Treatment groups\nThe inventors then analyzed whether these inhibitors produced any effect at the level of tumor vasculature by conducting in immunohistochemistry, using an anti-CD31 antibody as a marker of endothelial cells.\nHematoxylin-eosin stained paraffin sections of tumors obtained from mice from the different treatment groups were analyzed in order to evaluate the degree of necrosis."}, "[2]": {"tested_on": "primary tumor REN 28", "assay": "Long-term survival / anti-angiogenic resistance experiment: tumors from primary tumor REN 28 in mice", "assay_type": "in vivo", "from_the_text": "The inventors assessed next the effect of therapy with PD-ECGF inhibitors in a long term survival experiment, wherein the tumors are able to regrow (resistance) and wherein PD-ECGF overexpression has been observed.\nA survival experiment was followed, wherein the drugs previously tested on the primary tumor from REN 28 were continuously administered. This tumor line was selected because the inventors this tumor is able to generate an anti-angiogenic resistance phenotype with after treatment with bevacizumab and DC101.\nAgain, tumors of about 2 mm^3 size were implanted in mice, and the tumors were allowed to develop for 30 days (with a size of about 1,000 mm^3). The time from tumor development to death was measured as the anti-angiogenic resistance.\nTumors were measured and weighted; samples were collected for further processing. Treatments were stopped or changed on day 15. Table 3. Treatment groups.\nSeveral treatment strategies were followed in anti-VEGFR2 resistant tumors: • 1. stop the anti-VEGFR2 (DC101) treatment just when the tumors begin to becomes resistant, and verify if said tumors are able to regrow with or without vasculature (represented as \"DC101→R→OFF\" treatment group), • 2. change the VEGFR2 inhibition therapy by the inhibition of another pathway (PD-ECGF) (represented as \"DC101→R→AEAC\" treatment group), • 3. combine the VEGFR2-inhibition therapy (DC101) and the PD-ECGF-inhibition therapy ([…]) (represented as \"DC101→R→DC101 1 + AEAC\" treatment group)."}, "[3]": {"conditions": "AEAC added to DC101 after development of resistance (DC101→R→DC101 + AEAC)"}, "[4]": {"conditions": "therapy changed from DC101 to AEAC at onset of resistance (DC101→R→AEAC)"}}, "note": "Entries after “also recorded” stand apart in the source; their conditions may differ.", "data": [{"smiles": "NCCNc1[nH]c(=O)[nH]c(=O)c1Cl", "note": "[AEAC, 6-(2-aminoethyl)amino-5-chlorouracil]", "values": [{"measurement": "vascular density / tumor vasculature (anti-CD31 immunohistochemistry)", "setting": "[1]", "result": "decreased tumor vasculature"}, {"measurement": "tumor weight and volume", "setting": "[1]", "result": "decreased tumor weight and volume"}, {"measurement": "percentage of necrosis", "setting": "[1]", "result": "increased tumor necrosis"}, {"measurement": "number of vessels (labeled with anti-CD31 antibody)", "setting": "[1]; after 21 days of treatment, Figure 6", "result": "decrease in the number of vessels"}, {"measurement": "number of vessels / vascular density", "setting": "[2]; [3]", "result": "decreased vascular density"}, {"measurement": "toxicity to animals", "setting": "[2]; [3]", "result": "toxic"}, {"measurement": "tumor size / tumor volume", "setting": "[2]; [3]", "result": "small tumoral volume; also recorded: sustained effect on tumor volume reduction"}, {"measurement": "average and total survival", "setting": "[2]; REN 28, continuous treatment, compared to control mice, Figure 8", "result": "increased average and total survival"}, {"measurement": "survival", "setting": "[2]; [4]", "result": "increased survival"}, {"measurement": "time of tumor progression", "setting": "[2]; [4]", "result": "delayed the time of tumor progression"}]}, {"smiles": "Oc1ncnc2c1ncn2[C@@H]1O[C@H](COC(c2ccccc2)(c2ccccc2)c2ccccc2)[C@@H](O)[C@H]1O", "note": "[KIN 59, 5'-O-trityl-inosine]", "values": [{"measurement": "vascular density / tumor vasculature (anti-CD31 immunohistochemistry)", "setting": "[1]", "result": "decreased tumor vasculature"}, {"measurement": "tumor weight and volume", "setting": "[1]", "result": "decreased tumor weight and volume"}, {"measurement": "percentage of necrosis", "setting": "[1]", "result": "increased tumor necrosis"}, {"measurement": "number of vessels (labeled with anti-CD31 antibody)", "setting": "[1]; after 15 days of treatment, Figure 5", "result": "decrease in the number of vessels"}]}]}
